Values of other authors, collected in patent publication US20100035998A1, “COMBINATION S-NITROSOTHIOL PHARMACEUTICAL PRODUCTS FOR RESTORING NORMAL BREATHING RHYTHMS” (Galleon Pharmaceutical, Inc, priority 2005, published 2010).

Legend:
upper airway tone = details: animals
central apnea patients = details: low doses
[1] = test system: patients that had predominantly obstructive sleep apnea; details: low doses; patients with predominantly obstructive sleep apnea

SMILES: CN1CCN2c3ncccc3Cc3ccccc3C2C1 (stereo not shown) [Mirtazapine]
- effect on tone of the upper airway (upper airway tone): help restore the tone of the upper airway to prevent collapse

SMILES: CC(=O)Nc1nnc(S(N)(=O)=O)s1 [acetazolamide]
- apnea episodes after one month of treatment (central apnea patients; 25.5 pre-treatment): 6.8
- decrease in apnea episodes (central apnea patients; pre-treatment vs after one month of treatment): 73%
- reduction in apnea episodes [1]: about 25%
